# Measured values taken from patent US9198886B2, “Use of 2,5-dihydroxybenzene for the treatment of ocular diseases” (priority 2006, dated 2015).
# Assays:
# [1] = biological target: fibroblast growth factor-1 (FGF-1) (Homo sapiens, UniProt P05230); experiment: Co-crystal structure with fibroblast growth factor-1; type: binding
# Source text: (§1) FIG. 24. 2-acetoxy-5-hydroxybenzenesulfonic acid co-crystallized with fibroblast growth factor-1. […] The compound occupies a place that is very close to that described occupied by 2,5-dihydroxybenzenesulfonic acid, the aromatic ring of which forms a cation-π bond with the N^ε group of lysine 132, which is marked in panel A as reference. […] In panels A and B, the protein surface is colored according to its electrostatic potential (light grey: negative charge; dark grey: positive charge; white: lack of charge).
# as §1, with “25. 5-acetoxy-2-hydroxybenzenesulfonic” for “24. 2-acetoxy-5-hydroxybenzenesulfonic”
# as §1, with “26. 2,5-diacetoxybenzenesulfonic” for “24. 2-acetoxy-5-hydroxybenzenesulfonic”
# Based on the crystal diffraction of the FGF-1:2-acetoxy-5-hydroxybenzene sulfonic acid, FGF-1:5-acetoxy-2-hydroxybenzene sulfonic acid and FGF-1:2,5-diacetoxybenzene sulfonic acid complexes, the structures of the complexes were calculated and represented. FIGS. 24, 25 and 26, which show the surface of the dyed protein according to its electrostatic potential (light grey: negative charge; dark grey: positive charge; white: lack of charge), show the manner in which 2-acetoxy-5-hydroxybenzene sulfonic acid, 5-acetoxy-2-hydroxybenzene sulfonic acid and 2,5-diacetoxybenzene sulfonic acid interact, respectively, with FGF-1.
# skeletal muscle lesions = experiment: Oral treatment of patients with skeletal muscle and tendon lesions (MRI, function); type: in vivo, human
# Method: The capacity of a 2,5-dihydroxybenzene derivative, the 2,5-dihydroxybenzene sulfonic acid (DHBS) to effectively treat skeletal muscle lesions is shown herein. The efficacy is evident, not only in the images of conventional diagnosis that show the recovery of the muscular damage, but also there is a clear functional recovery of the affected limb.
# The first patient's left quadriceps was broken by practicing sports. […] At that moment, the patient starts a daily oral treatment with 500 mg of 2,5-dihydroxybenzene sulfonic acid (DHBS) for two weeks. […] An observation that may be applied to the other cases that support this example.
# Other patient has an hematoma and muscular breaking of the brachial biceps, as shown in the magnetic resonance image (MRI) of FIG. 12A. The hematoma can be appreciated externally (FIG. 13A) and the lesion, produced by professional practice (dancing) the day before the consultation, limits the elbow flexion (FIG. 13B) and extension (FIG. 13C).
# Nakagawa angioblastoma = experiment: Topical cream in a child with Nakagawa angioblastoma (hemangioblastoma); type: in vivo, human; conditions: cream 2.5%, topical twice a day, 1 month, one child
# Source text: Photographs showing the effects of a topical treatment with a cream comprising 2,5-dihydroxybenzenesulfonic (DHBS) in a child suffering from Nakagawa angioblastoma.
# The cream comprising 2,5-dihydroxybenzene sulfonic (2.5%) was topically applied twice a day during 1 month on the face of the child suffering from Nakagawa angioblastoma.
# [2] = test system: angiogenesis induced by Helicobacter pylori in the human gastric mucosa; experiment: Gastric mucosa biopsy in a patient chronically infected with Helicobacter pylori; type: in vivo; conditions: 500 mg/day oral, one week
# Method: FIG. 5. Helicobacter pylori • A) Hematoxylin-eosin staining of the gastric mucosa of a sample obtained from a patient infected with Helicobacter pylori before treatment. The arrows and the asterisk indicate the formation of neovessels in the mucosa protruding the gastric lumen through the lost epithelial layer. • B) Hematoxylin-eosin staining of the gastric mucosa of a sample obtained from the same patient infected with Helicobacter pylori after administering 500 mg of 2,5-dihydroxybenzenesulfonate (DHBS) daily for a week.
# A biopsy of the gastric mucosa was performed in a patient chronically infected with Helicobacter pylori before the oral treatment with 2,5-dihydroxybenzene sulfonic acid (Dobesilate) (500 mg/day). After a week of treatment, another biopsy was performed in the patient. Both biopsies were evaluated using hematoxylin-eosin staining. […] Microscopically, the arrows and the asterisk indicate the formation of neovessels in the mucosa protruding the gastric lumen through the lost epithelial layer. […] This example illustrates that the use of DHBS is beneficial in the treatment of gastritis and angiogenesis caused by the infection with Helicobacter pylori.
# pterygium = experiment: Topical solution in a patient with unilateral pterygium; type: in vivo, human; conditions: 2.5% solution, one drop four times per day, two weeks
# Source text: FIG. 3. […] The treatment consists of the application of 4 drops of said solution daily, for two weeks.
# The solution was applied topically to a patient suffering from unilateral pterygium, as one drop four times per day.
# [3] = patient with brachial biceps breaking, 1500 mg/day p.o., 20 days
# [4] = patient with broken left quadriceps, 500 mg/day p.o., two weeks
# fibroblast growth factor-1 (FGF-1), sequence (P05230 whole entry, species assumed): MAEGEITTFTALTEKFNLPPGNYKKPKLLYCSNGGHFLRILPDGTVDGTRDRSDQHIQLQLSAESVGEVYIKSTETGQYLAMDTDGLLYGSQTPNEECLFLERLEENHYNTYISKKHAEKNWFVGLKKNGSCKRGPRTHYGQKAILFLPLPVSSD
smiles,measurement,setting,value
"CC(=O)Oc1ccc(OC(C)=O)c(S(=O)(=O)[O-])c1.[K+] [DABS, potassium 2,5-diacetoxybenzene sulfonate]",binding site on FGF-1,[1]; crystal diffraction of the complex,"very close to the one that has been described occupied by 2,5-dihydroxybenzene sulfonic acid"
same,acetoxyl groups of the compound when bound to FGF-1,"[1]; crystal diffraction, electron density contoured at 1σ",conserve the acetoxyl groups
"O=S(=O)(O)c1cc(O)ccc1O [DHBS, 2,5-dihydroxybenzene sulfonic acid]",MRI tendon lesion,"skeletal muscle lesions; patient with Achilles tendon breaking, 1500 mg/day p.o., two months",marked reduction of said lesion
same,MRI size of lesion and hematoma,skeletal muscle lesions; [3],markedly reduces the size of the lesion and of the hematoma
same,elbow function,skeletal muscle lesions; [3],recovers the functionality of the elbow flexion and extension
same,MRI of quadriceps lesion and hematoma,skeletal muscle lesions; [4],the hematoma can no longer be observed
same,functional recovery of the leg,skeletal muscle lesions; [4],able to extend the left leg almost completely
same,time to functional recovery and resolution vs conventional treatments (antiinflammatories),skeletal muscle lesions; [4],shorter period than the one required in the case of conventional treatments
same,MRI muscular lesion,"skeletal muscle lesions; patient with semitendinous muscle lesion, 1500 mg/day p.o., 11 days",reduced the muscular lesion
same,coloration of the hemangioblastoma lesion,Nakagawa angioblastoma,reduction in the intensity of the reddish coloration
same,angiogenic activity in gastric mucosa,[2],less angiogenic activity
same,epithelial membrane of gastric mucosa,[2],apparently normal
same,gastric mucosa symptoms of congestion and erythema,[2],symptoms of congestion and erythema disappear
same,pterygium appearance,pterygium,partial reversal of the pterygium
